Where “and” joins values, the source holds several entries; their conditions need not be identical. Identical values can stand only once. Entries after “also recorded” stand apart in the source; their conditions may differ. Like-named read-outs stand apart in the source and are kept apart here.

Data set [1] deals with iron-overloaded Cebus apella primates. The following applies: cited from earlier work.
For data set [2] the following is noted: 2:1 complex with Fe(III); cited from earlier work.
Data set [3] concerns non-iron-overloaded, bile duct-cannulated rats. The following applies: historical data, cited from earlier work.
The conditions of data set [4]: historical findings from references; cited from earlier work.
For data set [5] the following is noted: trial abandoned by Genzyme; cited from earlier work.
Data set [6] concerns non-iron-overloaded, bile duct-cannulated rats. Nature of the data set: Chelator-induced iron clearance (ICE, biliary ferrokinetics) in non-iron-overloaded, bile duct-cannulated rodents. It is filed as in vivo, rat (male Sprague-Dawley). The following applies: for time of maximum iron clearance (MIC), biliary ferrokinetics / time until iron excretion is over / returned to baseline, biliary ferrokinetics / ICE (iron-clearing efficiency), rodents: bile duct-cannulated rats; for time of maximum iron clearance (MIC), biliary ferrokinetics / time until iron excretion is over / returned to baseline, biliary ferrokinetics: 300 μmol/kg PO; for ICE relative to parent ligand 2 (times) / ICE relative to trioxa polyether 4 (times): rodents, po 300 μmol/kg.

The subject of data set [7] is iron-overloaded Cebus apella primates. Briefly: Chelator-induced iron clearance (ICE) in iron-overloaded Cebus apella primates. The following applies: for performance ratio (PR), mean ICEprimates/ICErodents: current study; for ICE (iron-clearing efficiency), primates: iron-overloaded C. apella. It is filed as in vivo.
Procedure: The drugs were administered in capsules (6, 7), solubilized in either 40% Cremophor RH-40/water (1), distilled water (4), or were given as their monosodium salts, prepared by the addition of 1 equiv of NaOH to a suspension of the free acid in distilled water (2, 3, 5). The efficiency of each compound was calculated by subtracting the 24-h iron excretion of control animals from the iron excretion of the treated animals. The number was then divided by the theoretical output; the result is expressed as a percent. […] The relative percentages of the iron excreted in the bile and urine are in brackets. ^cIn the primates [n=4 (1, 3, 4, 5, 6 in capsules, 7) or 7 (2, 6 as the monosodium salt)], the chelators were given po at a dose of 75 μmol/kg (5-7) or 150 μmol/kg (1-4). The drugs were administered in capsules (6^d, 7), solubilized in either 40% Cremophor RH-40/water (1, 3), distilled water (4), or were given as their monosodium salts, prepared by the addition of 1 equiv of NaOH to a suspension of the free acid in distilled water (2, 5, 6^e).
Iron chelators in a Cebus apella monkey model. […] Briefly, the monkeys are iron overloaded with iron dextran administered intravenously to result in an iron loading of about 500 mg per kg of body weight. At least 20 half-lives, 60 days, elapse before the animals are used in experiments evaluating iron chelators. The iron chelators are suspended in vehicle and administered either p.o. or s.c. Fecal and urine samples are collected at 24 hour intervals beginning 4 days prior to the administration of an iron chelator and continued for 5 days after the chelator is administered. Iron concentrations in stool and urine are determined by flame atomic absorption spectroscometry. Iron chelator efficiency is calculated by dividing the net iron clearance [total iron excretion (stool plus urine) minus background] by the theoretical iron clearance and multiplying by 100. The theoretical clearance of the iron chelator is generated on the basis of a 2:1 ligand/iron complex.
Drug preparation and administration. In the iron clearing experiments, the rats were given 5-7 orally at a dose of 300 μmol/kg. Ligand 5 was given by gavage as its monosodium salt (prepared by the addition of 1 equiv of NaOH to a suspension of the free acid in distilled water), while 6 and 7 were given in capsules. The primates were given 5-7 orally at a dose of Ligand 5 was given to the primates by gavage as its monosodium salt. Analogue 6 was given to the monkeys by gavage as its monosodium salt, as well as in capsules. Ligand 7 was given to the monkeys in capsules.
Another data set relates to rats. Briefly: Tissue iron decorporation in rats after 10 days of oral dosing. It is filed as in vivo, rat (male Sprague-Dawley).
A short description of data set [8]: Octanol/water partition (log Papp), shake flask direct method, Tris buffer pH 7.4. To be noted: from log Papp values.
Procedure: The efficiency of each compound was calculated by subtracting the 24-h iron excretion of control animals from the iron excretion of the treated animals. The number was then divided by the theoretical output; the result is expressed as a percent. […] The relative percentages of the iron excreted in the bile and urine are in brackets. ^cIn the primates [n=4 (1, 3, 4, 5, 6 in capsules, 7) or 7 (2, 6 as the monosodium salt)], the chelators were given po at a dose of 75 μmol/kg (5-7) or 150 μmol/kg (1-4).
The partition values between octanol and water (at pH 7.4, Tris buffer) were determined using a “shake flask” direct method of measuring log Papp values.^52 The fraction of drug in the octanol is then expressed as log Papp.
Data set [9] is described as follows: Hydrolysis of ester 7 to acid 6 in Cebus apella monkey plasma. It is filed as in vitro ADME. The following applies: 37° C., solubilized in DMSO. How it is done:
(§1) The profound difference between the ICE of the parent acid chelator 6 versus that of the ester 7 in rodents and primates is consistent with two possible explanations: 1) The ester is poorly absorbed from the gastrointestinal (GI) tract in the primates, or 2) The primate non-specific serum esterases simply may not cleave ester 7 to the active chelator acid 6. An experiment was performed using rat and monkey plasma in an attempt to determine if the relatively poor ICE of 7 in the primates was due to interspecies differences in hydrolysis. When 7 was solubilized in DMSO and incubated at 37° C. with rat plasma, all of the ester had been converted to the active acid 6 within 1-2 h. This was also the case when the experiment was carried out with plasma from Cebus apella monkeys. Thus, there is no difference in the hydrolysis of 7 between the rats and the primates. Therefore, the poor ICE of 7 in the monkeys is consistent with the idea that the ester is absorbed much more effectively from the GI tract of the rodents than from the GI tract of the primates. Control experiments were also performed in which saline was used in place of the rat or monkey plasma.
(§2) Plasma analytical methods. […] The chelator concentrations were calculated from the peak area fitted to calibration curves by non-weighted least-squares linear regression with Shimadzu CLASS-NP 7.4 Chromatography Software. […]

Data set [10] in a line: Control incubation of ester 7 in saline in place of plasma. Type of data set: physicochemical. The following applies: solubilized in DMSO. How it is done:
as §1
The ethyl ester (7) was solubilized in DMSO and further diluted with distilled water to provide a 100 μM solution. A 25 μL aliquot of the drug solution was added to centrifuge tubes containing 100 μL of rat or primate plasma. […]

The nature of data set [11]: Hydrolysis of ester 7 to acid 6 in rat plasma. Type of data set: in vitro ADME. The following applies: 37° C., solubilized in DMSO. As for the experimental part:
as §1, §2

The mark [12] stands for this setting: bile duct-cannulated rats, po 300 μmol/kg.
Where [13] appears, read: po 75 μmol/kg by gavage as monosodium salt.
Where [14] appears, read: 384 μmol/kg/day × 10 days po as sodium salt.
The mark [15] stands for this setting: 384 μmol/kg/day × 10 days po in capsules.
[16] abbreviates: 192 μmol/kg/d × 10 days po in capsules.

For the molecule `COCCOCCOCCOc1ccc(O)c(C2=NC(C)(C(=O)O)CS2)c1` (single isomer, unassigned) [5′-isomer of 4], the “performance ratio (PR), mean ICEprimates/ICErodents” value in [1] (previously reported (ref 46)) is on record as 1. For the same molecule, the “ICE (iron-clearing efficiency), primates” value in data set [1] (previously reported, dose not stated) is recorded as 8.1±2.8%.
As to `C[C@]1(C(=O)O)CSC(c2ncccc2O)=N1` [ligand 1, (S)-4,5-dihydro-2-(3-hydroxy-2-pyridinyl)-4-methyl-4-thiazolecarboxylic acid], the “ICE (iron-clearing efficiency), primates” value in data set [1] (iron-overloaded C. apella, po 150 μmol/kg, historical data) is 16%. Also, the “log β2” value in [2] was 29.6. In addition, in data set [3] (bile duct-cannulated rodent model, po 150 μmol/kg), the “ICE (iron-clearing efficiency), rodents” value is 5.5%. Further, the nephrotoxicity entry in [4] is given as “severely nephrotoxic”.
For `C[C@]1(C(=O)O)CSC(c2ccc(O)cc2O)=N1` [ligand 2, (S)-2-(2,4-dihydroxyphenyl)-4,5-dihydro-4-methyl-4-thiazolecarboxylic acid], in data set [5], the clinical trial outcome is on record as “abandoned by Genzyme because of renal toxicity”. In data set [6], the “time of maximum iron clearance (MIC), biliary ferrokinetics” value (“time of maximum iron clearance (MIC)” for short) was found to be 3 h and the “time until iron excretion is over / returned to baseline, biliary ferrokinetics” value turned out to be 9 h. Further, the “ICE (iron-clearing efficiency), rodents” value in [3] (setting [12]) is recorded as 1.1±0.8%.
Turning to `COc1ccc(C2=N[C@@](C)(C(=O)O)CS2)c(O)c1` [ligand 3, (S)-4,5-dihydro-2-(2-hydroxy-4-methoxyphenyl)-4-methyl-4-thiazolecarboxylic acid], in [4], the nephrotoxicity result is “very nephrotoxic; also recorded: unacceptably nephrotoxic”.
With `COCCOCCOCCOc1ccc(C2=N[C@@](C)(C(=O)O)CS2)c(O)c1` [ligand 4, (S)-4,5-dihydro-2-[2-hydroxy-4-(3,6,9-trioxadecyloxy)phenyl]-4-methyl-4-thiazolecarboxylic acid, reference compound], in data set [6], the “time of maximum iron clearance (MIC)” value came to 3 h; the “time until iron excretion is over / returned to baseline, biliary ferrokinetics” value came to 12 h; the “ICE relative to parent ligand 2 (times)” value is on record as “five times greater”. In addition, in [7] (primates), the “ICE relative to longer analogue 5 (times)” value came to 2.5. For the same molecule, in data set [3] (setting [12]), the “ICE (iron-clearing efficiency), rodents” value was 5.5±1.9%. Further, the nephrotoxicity result in data set [4] is “virtually absent of any nephrotoxicity”.
`COCCOCCOCCOCCOc1ccc(C2=N[C@@](C)(C(=O)O)CS2)c(O)c1` [ligand 5, (S)-4,5-dihydro-2-[2-hydroxy-4-(3,6,9,12-tetraoxamidecyloxy)phenyl]-4-methyl-4-thiazolecarboxylic acid]: in [6], the “time of maximum iron clearance (MIC)” value is recorded as 6 h; the “time until iron excretion is over / returned to baseline, biliary ferrokinetics” value is given as 24 h; the “ICE relative to parent ligand 2 (times)” value is listed as ~11; the “ICE relative to trioxa polyether 4 (times)” value is recorded as “twice as effective”. Further, the “ICE (iron-clearing efficiency), rodents” value in data set [6] (po 300 μmol/kg by gavage as monosodium salt) was determined as 12.0±1.5%. Besides, the “performance ratio (PR), mean ICEprimates/ICErodents” value in [7] was found to be 0.82. Besides, in [7] (setting [13]), the “ICE (iron-clearing efficiency), primates” value came to 9.8±1.9%.
As for `COCCOCCOc1ccc(C2=N[C@@](C)(C(=O)O)CS2)c(O)c1` [ligand 6, (S)-4,5-dihydro-2-[2-hydroxy-4-(3,6-dioxaheptyloxy)phenyl]-4-methyl-4-thiazolecarboxylic acid], in the data set on rats (setting [14]), the “decrease of cardiac iron vs untreated controls” value (shortened to “decrease of cardiac iron”) was 9.9%, the “reduction of liver iron vs untreated controls” value (shortened to “reduction of liver iron”) was > 35%, the “reduction of pancreatic iron vs untreated controls” value (from here on “reduction of pancreatic iron”) is “significant reduction in pancreatic iron” and the “reduction of renal iron content vs untreated controls” value (from here on “reduction of renal iron content”) amounted to 24.8%. Besides, in the data set on rats (setting [15]), the “decrease of cardiac iron” value is on record as 6.9%, the “reduction of liver iron” value is listed as > 35%, the “reduction of pancreatic iron” value is recorded as “but not when it was dosed in capsules” and the “reduction of renal iron content” value is listed as 7.4%. Further, the “ICE (iron-clearing efficiency), rodents” value in data set [6] (po 300 μmol/kg in capsules) is > 26%. The “ICE (iron-clearing efficiency), rodents” value in data set [6] (po 300 μmol/kg in capsules, listed as 6) is 26.7±4.7%. For the same molecule, the “ICE relative to trioxa polyether 4 (times)” value in data set [6] was “nearly five times greater”. Also, the “performance ratio (PR), mean ICEprimates/ICErodents” value in data set [7] was 1.0. In data set [7] (setting [13]), the “ICE (iron-clearing efficiency), primates” value was found to be 28.7±12.4%. Moreover, the “ICE (iron-clearing efficiency), primates” value in data set [7] (po 75 μmol/kg in capsules) is 26.3±9.9% and > 26%.
For `CCOC(=O)[C@@]1(C)CSC(c2ccc(OCCOCCOC)cc2O)=N1` [ligand 7, ethyl (S)-4,5-dihydro-2-[2-hydroxy-4-(3,6-dioxaheptyloxy)phenyl]-4-methyl-4-thiazolecarboxylate], in the data set with rats (setting [16]), the “decrease of cardiac iron” value was “Neither dose was associated with a reduction”, the “reduction of liver iron” value was 27%, the “reduction of pancreatic iron” value is reported as “Neither dose was associated with a reduction” and the “reduction of renal iron content” value turned out to be 12.6%. In the data set on rats (setting [15]), the “decrease of cardiac iron” value is recorded as “Neither dose was associated with a reduction”, the “reduction of liver iron” value is reported as 59.1%, the “reduction of pancreatic iron” value is on record as “Neither dose was associated with a reduction” and the “reduction of renal iron content” value worked out at 32.1%. The “ICE (iron-clearing efficiency), rodents” value in [6] (po 300 μmol/kg in capsules) was 25.9±6.5%. In addition, the “ICE relative to parent ligand 2 (times)” value in data set [6] is listed as “approximately 24”. In addition, the “performance ratio (PR), mean ICEprimates/ICErodents” value in data set [7] is on record as 0.33. For the same molecule, the “ICE (iron-clearing efficiency), primates” value in data set [7] (po 75 μmol/kg in capsules) is 8.8±2.2%. Besides, the “ICE relative to acid 6” value in data set [7] (primates) was “only one third”. Moreover, in data set [8] (7 vs 1), the “fold difference in partition” value is “greater than 58.000 fold”. For the same molecule, the “times more lipophilic than the parent 2” value in [8] (7 vs 2) is 11,220. Further, the “time for conversion of all of the ester to the active acid 6” value in [9] lay in the range of 1 to 2 h. For the same molecule, in data set [10], the “stability of the ester in saline” value is “all of the drug remained in the form of the ester”. Also, in [11], the “time for conversion of all of the ester to the active acid 6” value was 1 to 2 h.

The values are drawn from US20120184586A1, “DESFERRITHIOCIN POLYETHER ANALOGUES AND USES THEREOF” (University of Florida Research Foundation, Inc., priority 2009, published 2012).
